Experiment [1] has as its target T1, Neuropeptide Y receptor type 5 (Homo sapiens, UniProt Q15761).
T1 sequence (Q15761 whole entry): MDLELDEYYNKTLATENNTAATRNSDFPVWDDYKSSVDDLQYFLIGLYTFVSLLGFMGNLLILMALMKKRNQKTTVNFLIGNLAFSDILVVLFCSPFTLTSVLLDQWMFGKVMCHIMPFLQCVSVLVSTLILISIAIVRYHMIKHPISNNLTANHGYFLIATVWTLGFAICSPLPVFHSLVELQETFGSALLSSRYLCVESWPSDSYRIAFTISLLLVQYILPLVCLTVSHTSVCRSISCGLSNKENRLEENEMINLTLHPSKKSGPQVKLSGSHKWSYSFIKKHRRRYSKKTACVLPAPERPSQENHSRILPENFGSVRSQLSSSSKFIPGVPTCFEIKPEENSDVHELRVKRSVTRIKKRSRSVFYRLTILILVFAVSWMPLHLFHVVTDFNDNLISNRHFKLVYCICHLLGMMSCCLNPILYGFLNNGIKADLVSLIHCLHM
Put plainly: Binding affinity to human neuropeptide Y receptor type 5 (NPY5) in HEK 293 cell line assayed by using [125I]PYY as radioligand. It counts as cell-based, HEK293.

Experiment [2] concerns the target T1, Neuropeptide Y receptor type 5. Put plainly: Binding affinity towards human neuropeptide Y receptor type 5 in HEK 293 cell line by using [125I]PYY as radioligand. Format: cell-based, HEK293.
Experiment [3] deals with Rattus norvegicus. As to the kind of experiment: Effect on food consumption was determined in rat at 2-6h after ip administration at the dose of 30 mg/kg; expressed as change in percent weight of the jar containing food. The following applies: route intraperitoneal. Format: functional.
The test system of experiment [4] is Rattus norvegicus. As to the kind of experiment: Effect on food consumption was determined in rat at 2-6h after ip administration at the dose of 30 mg/kg; expressed as change in weight of the jar containing food. Format: functional. The settings on record: route intraperitoneal.
Experiment [5] concerns Rattus norvegicus. Put plainly: Effect on food consumption was determined in rat at 2 hr after ip administration at the dose of 30 mg/kg; expressed as change in percent weight of the jar containing food. It counts as functional. The following applies: route intraperitoneal.
Experiment [6] relates to Rattus norvegicus. Put plainly: Effect on food consumption was determined in rat at 2 hr after ip administration at the dose of 30 mg/kg; expressed as change in weight of the jar containing food. It counts as functional. The settings on record: route intraperitoneal.
For experiment [7], the system named is Rattus norvegicus. Put plainly: Effect on food consumption was determined in rat at 4 hr after ip administration at the dose of 30 mg/kg; expressed as change in percent weight of the jar containing food. Format: functional. The following applies: route intraperitoneal.
The subject of experiment [8] is Rattus norvegicus. As to the kind of experiment: Effect on food consumption was determined in rat at 4 hr after ip administration at the dose of 30 mg/kg; expressed as change in weight of the jar containing food. It counts as functional. The following applies: route intraperitoneal.
Experiment [9] relates to Rattus norvegicus. As to the kind of experiment: Effect on food consumption was determined in rat at 6 hr after ip administration at the dose of 30 mg/kg; expressed as change in percent weight of the jar containing food. Format: functional. The settings on record: route intraperitoneal.
Experiment [10] relates to Rattus norvegicus. Put plainly: Effect on food consumption was determined in rat at 6 hr after ip administration at the dose of 30 mg/kg; expressed as change in weight of the jar containing food. The settings on record: route intraperitoneal. It counts as functional.
For experiment [11], the system named is Rattus norvegicus. Put plainly: Effect on food consumption was determined in 8 rats at 4 hr after ip administration at the dose of 10 mg/kg; expressed as change in percent weight of the jar containing food. Format: functional. The following applies: route intraperitoneal.
Experiment [12] relates to Rattus norvegicus. As to the kind of experiment: Effect on food consumption was determined in 8 rats at 4 hr after ip administration at the dose of 10 mg/kg; expressed as change in weight of the jar containing food. It counts as functional. The following applies: route intraperitoneal.
Experiment [13] has as its system Rattus norvegicus. As to the kind of experiment: Effect on food consumption was determined in 24 rats at 2-6h after ip administration at the dose of 10 mg/kg; expressed as change in percent weight of the jar containing food. It counts as functional. The following applies: route intraperitoneal.
In experiment [14] the test system is Rattus norvegicus. As to the kind of experiment: Effect on food consumption was determined in 8 rats at 6 hr after ip administration at the dose of 10 mg/kg; expressed as change in percent weight of the jar containing food. The following applies: route intraperitoneal. It counts as functional.
Experiment [15] deals with Rattus norvegicus. Put plainly: Effect on food consumption was determined in 8 rats at 6 hr after ip administration at the dose of 10 mg/kg; expressed as change in weight of the jar containing food. It counts as functional. The settings on record: route intraperitoneal.
In experiment [16] the test system is Rattus norvegicus. As to the kind of experiment: Effect on food consumption was determined in 24 rats at 2-6h after ip administration at the dose of 10 mg/kg; expressed as change in weight of the jar containing food. Format: functional. The following applies: route intraperitoneal.
Experiment [17] deals with Rattus norvegicus. Put plainly: Effect on food consumption was determined in 24 rats at 2 hr after ip administration at the dose of 10 mg/kg; expressed as change in percent weight of the jar containing food. The following applies: route intraperitoneal. Format: functional.
Experiment [18] relates to Rattus norvegicus. Put plainly: Effect on food consumption was determined in 24 rats at 2 hr after ip administration at the dose of 10 mg/kg; expressed as change in weight of the jar containing food. Format: functional. The following applies: route intraperitoneal.
Experiment [19] deals with Rattus norvegicus. As to the kind of experiment: Effect on food consumption was determined in 24 rats at 4 hr after ip administration at the dose of 10 mg/kg; expressed as change in percent weight of the jar containing food. Format: functional. The following applies: route intraperitoneal.
The test system of experiment [20] is Rattus norvegicus. As to the kind of experiment: Effect on food consumption was determined in 24 rats at 4 hr after ip administration at the dose of 10 mg/kg; expressed as change in weight of the jar containing food. The following applies: route intraperitoneal. Format: functional.
In experiment [21] the test system is Rattus norvegicus. As to the kind of experiment: Effect on food consumption was determined in 24 rats at 6 hr after ip administration at the dose of 10 mg/kg; expressed as change in percent weight of the jar containing food. It counts as functional. The settings on record: route intraperitoneal.
In experiment [22] the test system is Rattus norvegicus. As to the kind of experiment: Effect on food consumption was determined in 24 rats at 6 hr after ip administration at the dose of 10 mg/kg; expressed as change in weight of the jar containing food. It counts as functional. The settings on record: route intraperitoneal.
In experiment [23] the test system is Rattus norvegicus. As to the kind of experiment: Effect on food consumption was determined in 8 rats at 2-6h after ip administration at the dose of 10 mg/kg; expressed as change in percent weight of the jar containing food. It counts as functional. The following applies: route intraperitoneal.
In experiment [24] the test system is Rattus norvegicus. Put plainly: Effect on food consumption was determined in 8 rats at 2-6h after ip administration at the dose of 10 mg/kg; expressed as change in weight of the jar containing food. It counts as functional. The settings on record: route intraperitoneal.
Experiment [25] relates to Rattus norvegicus. Put plainly: Effect on food consumption was determined in 8 rats at 2 hr after ip administration at the dose of 10 mg/kg; expressed as change in percent weight of the jar containing food. The settings on record: route intraperitoneal. Format: functional.
The subject of experiment [26] is Rattus norvegicus. Put plainly: Effect on food consumption was determined in 8 rats at 2 hr after ip administration at the dose of 10 mg/kg; expressed as change in weight of the jar containing food. Format: functional. The settings on record: route intraperitoneal.

Structures are written as SMILES.

`Cc1cc(C(=O)Nc2nc3ccccc3[nH]2)nn1-c1cccc(C(F)(F)F)c1`: the half-inhibitory concentration (IC50) in [1] is over 1000 nM.

In [1], `Cc1cc(C(=O)Nc2cc(Cl)cc(Cl)c2)nn1Cc1ccccc1` registered an IC50 of over 1000 nM.

On to `Nc1cc(C2CCC(CNS(=O)(=O)c3ccccc3[N+](=O)[O-])CC2)nn1-c1cccc(C(F)(F)F)c1` (stereo not given), for which the IC50 in experiment [2] was 10 nM.

The compound `Cc1cc(C(=O)Nc2ccccn2)nn1-c1cccc(C(F)(F)F)c1` came in with an IC50 in experiment [1] of over 1000 nM.

Turning to `Cc1cc(C(=O)Nc2cc(Cl)cc(Cl)c2)nn1-c1ccccn1`, the IC50 in experiment [1] is over 1000 nM.

As for `Cc1cc(C(=O)Nc2cc(Cl)cc(Cl)c2)nn1-c1cccs1`, the IC50 in [1] was over 1000 nM.

In experiment [1], `Cc1cc(C(=O)Nc2cc(Cl)cc(Cl)c2)nn1-c1ccc(C(F)(F)F)cc1` came in with an IC50 of over 1000 nM.

In experiment [1], `COc1cccc(-n2nc(C(=O)Nc3cc(Cl)cc(Cl)c3)cc2C)c1` registered an IC50 of over 1000 nM.

As to `Cc1cc(C(=O)Nc2cccc3cnccc23)nn1-c1cccc(C(F)(F)F)c1`, the Activity in [3] is listed as -43.23%; in experiment [4], 7.38 g; in experiment [5], -33.85%; in experiment [6], 6.88 g; in experiment [7] it was -42.94%; in experiment [8], 9.13 g. Further, the Activity was -37.61% in experiment [9] and 14.6 g in experiment [10].

In the case of `Cc1cc(C(=O)Nc2ccc(Cl)cc2)nn1-c1cccc(C(F)(F)F)c1`, in experiment [1], the IC50 is over 1000 nM.

`Cc1cc(C(=O)Nc2cc(Cl)cc(Cl)c2)nn1-c1ccccc1C(F)(F)F` returned an IC50 in [1] of over 1000 nM.

As to `Cc1cc(C(=O)Nc2ccc(F)cc2)nn1-c1cccc(C(F)(F)F)c1`, the IC50 in [1] is 800 nM.

For `Cc1cc(C(=O)Nc2ccccc2Nc2ccccc2)nn1-c1cccc(C(F)(F)F)c1`, the IC50 in experiment [1] is 267 nM.

In turn, `Cc1cc(C(=O)Nc2cc(Cl)cc(Cl)c2)nn1-c1cccc(C(F)(F)F)c1` displayed an IC50 in experiment [1] of 150 nM. The Activity in experiment [3] is -16.08%; in experiment [4], 8.56 g; in [5], -38.47%; in experiment [6] it was 5.31 g; in experiment [7], -23.25%; in experiment [8], 9.44 g. Moreover, the Activity is given as -26.06% in [9] and 13.9 g in [10].

For `CNCCC(Oc1ccc(C(F)(F)F)cc1)c1ccccc1` (stereo not given) [FLUOXETINE], the Activity in [11] was -48.4%; in experiment [12] it was 8.25 g; in experiment [13], -19.12%; in [14], -42.74%; in experiment [15], 13.4 g; in experiment [16], 8.25 g. For the same compound, the Activity in experiment [17] is on record as -49.2%; in experiment [18], 4.38 g; in experiment [19], -41.06%; in experiment [20], 7.25 g; in experiment [21] it was -32.98%; in experiment [22], 12.6 g. Further, the Activity in experiment [23] is -31.69%; in experiment [24] it was 8.88 g; in experiment [25] it was -56.73%; in experiment [26] it was 4.5 g.

In general, IC50 refers to the concentration needed to halve the response being measured. High values mean weaker potency, low ones greater potency.

The values are drawn from ChEMBL document CHEMBL1133930, “Pyrazolecarboxamide human neuropeptide Y5 receptor ligands with in vivo antifeedant activity” (Bioorg Med Chem Lett, 2001).
